Here are results for two compounds from US11865108B2, “Nitrogen containing bicyclic compounds” (Wockhardt Limited, priority 2019, dated 2024).

Broadly, the MIC is the lowest concentration that inhibits growth of the organism. In general, melting point refers to the temperature of the solid-liquid transition.

The test system of one data set is E. Coli S 18. Kind of data set: Agar dilution MIC, E. Coli S 18. The class given is cell-based. The note with it: Escherichia coli. Here is the method:
(§1) The biological activity of representative compounds according to the invention against various bacterial strains was investigated. In a typical study, overnight grown bacterial cultures were diluted appropriately and inoculated on the agar media containing doubling dilutions of the test compounds. Observations for growth or no growth was performed after 16-20 hours of incubation at 35±2° C. in the ambient air. The overall procedure was performed as per Clinical and Laboratory Standards Institute (CLSI) recommendations, (Clinical and Laboratory Standards Institute (CLSI), Performance Standards for Antimicrobial Susceptibility Testing, 20th Informational Supplement, M07-A9, Volume 32, No. 2, 2012). Molten Mueller Hinton Agar (MHA) (BD, USA) containing serial dilutions of each antibacterial agent were poured on to the plates and allowed to solidify. Appropriate suspensions from the freshly grown cultures were prepared in normal saline so that about 10^4 CFU/spot of the organism was delivered on to the drug containing agar plates using automated multipoint inoculator (Mast, UK). The plates were incubated in Biochemical oxygen demand (BOD) incubator at 37° C. for 18 hours and then examined for growth. […] The Table 2 depicts the antibacterial activity profile of compounds according to present invention against various multidrug resistant bacterial strains.

A further data set has as its system K. pneumoniae B 88. The experiment in a line: MIC alone and in combination, K. pneumoniae B 88. In kind it is cell-based. Conditions: Klebsiella pneumoniae, B88, 18 h, beta lactamase NDM, ESBL, alone or in combination as labelled. The procedure:
as §1
(§2) The antibacterial activity of compounds according to the invention was also investigated in combination with several antibacterial agents. For example, antibacterial activity of the representative compounds of Formula (I) (Example 1 and Example 2) in combination with Ceftazidime and Cefixime are summarized in Table 3.

In a further data set the test system is K. pneumoniae B 77. Kind of data set: MIC alone and in combination, K. pneumoniae B 77. In kind it is cell-based. The note with it: Klebsiella pneumoniae, B77, 18 h, beta lactamase NDM, ESBL, alone or in combination as labelled. The procedure: as §1, §2
Another data set concerns K. pneumoniae H 525. The experiment in a line: Agar dilution MIC, K. pneumoniae H 525. In kind it is cell-based. Conditions: Klebsiella pneumoniae, H525. The procedure: as §1
For orientation: In agar dilution the substance is mixed into plates at graded concentrations.

A further data set deals with E. Coli 13352. The experiment in a line: Agar dilution MIC, E. Coli 13352. The class given is cell-based. The note with it: Escherichia coli. Here is the method:
as §1

Another data set has as its system K. pneumoniae NCTC 13439. The experiment in a line: MIC alone and in combination, K. pneumoniae NCTC 13439. In kind it is cell-based. The note with it: Klebsiella pneumoniae, NCTC13439, 18 h, beta lactamase VIM-1, alone or in combination as labelled. Here is the method:
as §1, §2

A further data set relates to E. Coli 13351. The experiment in a line: Agar dilution MIC, E. Coli 13351. In kind it is cell-based. Conditions: Escherichia coli. The procedure: as §1
The next data set relates to E. Coli 13353. The experiment in a line: Agar dilution MIC, E. Coli 13353. In kind it is cell-based. The note with it: Escherichia coli. Here is the method:
as §1

The test system of a further data set is E. Coli M 50. The experiment in a line: Agar dilution MIC, E. Coli M 50. In kind it is cell-based. The note with it: Escherichia coli. Here is the method: as §1
For data set [1], the system named is Multi Drug Resistant (MDR) Gram negative strains. The experiment in a line: Antibacterial activity alone and in combination, summary of Table 3. The class given is cell-based, K. pneumoniae. Conditions: for antibacterial effect in combination: in combination with Ceftazidime and Cefixime, highly resistant bacterial strains; for antibacterial activity when used alone: strains of Table 3. Here is the method:
as §1, §2

Another data set relates to E. Coli M 36. The experiment in a line: Agar dilution MIC, E. Coli M 36. In kind it is cell-based. The note with it: Escherichia coli. The procedure: as §1
For another data set, the system named is K. pneumoniae H 523. Kind of data set: Agar dilution MIC, K. pneumoniae H 523. In kind it is cell-based. The note with it: Klebsiella pneumoniae, H523. The procedure: as §1
A further data set deals with K. pneumoniae S 465. Kind of data set: MIC alone and in combination, K. pneumoniae S 465. Conditions: Klebsiella pneumoniae, S465, 18 h, beta lactamase OXA-181, ESBL, alone or in combination as labelled. In kind it is cell-based. Here is the method: as §1, §2
The subject of another data set is K. pneumoniae H 521. Kind of data set: Agar dilution MIC, K. pneumoniae H 521. The class given is cell-based. The note with it: Klebsiella pneumoniae, H521. Here is the method:
as §1

Another data set relates to E. Coli M 49. The experiment in a line: Agar dilution MIC, E. Coli M 49. In kind it is cell-based. The note with it: Escherichia coli. Here is the method:
as §1

Another data set has as its system E. Coli M 138. The experiment in a line: Agar dilution MIC, E. Coli M 138. In kind it is cell-based. Conditions: Escherichia coli. Here is the method:
as §1

The next data set deals with E. Coli 7 MP. The experiment in a line: Agar dilution MIC, E. Coli 7 MP. In kind it is cell-based. Conditions: Escherichia coli. The procedure:
as §1

The test system of the next data set is K. pneumoniae NCTC 13443. The experiment in a line: MIC alone and in combination, K. pneumoniae NCTC 13443. In kind it is cell-based. Conditions: Klebsiella pneumoniae, NCTC13443, 18 h, beta lactamase NDM, ESBL, alone or in combination as labelled. Here is the method:
as §1, §2

The subject of another data set is K. pneumoniae H 522. Kind of data set: Agar dilution MIC, K. pneumoniae H 522. The class given is cell-based. The note with it: Klebsiella pneumoniae, H522. The procedure: as §1
A further data set has as its system KP ATCC 700603. The experiment in a line: Agar dilution MIC, KP ATCC 700603. In kind it is cell-based, K. pneumoniae. The note with it: Klebsiella pneumoniae, ATCC700603. Here is the method: as §1

In brackets after ≈: the same amount, converted by molar mass.

Consider `C[C@@H]1CN[C@H](CONC(=O)[C@@H]2CC[C@@H]3CN2C(=O)N3OS(=O)(=O)O)C1` [Example 2, (2S,5R)—N-{[(2S,4S)-4-Methyl-pyrrolidin-2-yl]methyloxy}-7-oxo-6-(sulfooxy)-1,6-diazabicyclo[3.2.1]octane-2-carboxamide], for which the MIC in the data set on E. Coli S 18 is 1 µg/mL (≈ 2.64 µM); with K. pneumoniae B 88, more than 32 µg/mL; in the data set with K. pneumoniae B 77, more than 32 µg/mL; in the data set on K. pneumoniae H 525, 1 µg/mL (≈ 2.64 µM); with E. Coli 13352, 1 µg/mL (≈ 2.64 µM); in the data set on K. pneumoniae NCTC 13439, more than 32 µg/mL. The MIC was 1 µg/mL (≈ 2.64 µM) in the data set on E. Coli 13351; 0.5 µg/mL (≈ 1.32 µM) with E. Coli 13353; 1 µg/mL (≈ 2.64 µM) against E. Coli M 50; 0.5 µg/mL (≈ 1.32 µM) in the data set with E. Coli M 36; 1 µg/mL (≈ 2.64 µM) with K. pneumoniae H 523; more than 32 µg/mL in the data set with K. pneumoniae S 465. Moreover, the MIC in the data set on K. pneumoniae H 521 was 2 µg/mL (≈ 5.29 µM); against E. Coli M 49 it was 4 µg/mL (≈ 10.6 µM); in the data set with E. Coli M 138, 1 µg/mL (≈ 2.64 µM); in the data set on E. Coli 7 MP, 2 µg/mL (≈ 5.29 µM); in the data set on K. pneumoniae NCTC 13443, more than 32 µg/mL; in the data set with K. pneumoniae H 522 it was 1 µg/mL (≈ 2.64 µM). In the data set with KP ATCC 700603, this compound showed an MIC of more than 32 µg/mL. Further, the “antibacterial effect in combination” value in data set [1] is “unusual and unexpected synergistic antibacterial effect”. The “antibacterial activity when used alone” value in [1] is “did not exhibit significant antibacterial activity”.

As for `C[C@H]1CN[C@H](CONC(=O)[C@@H]2CC[C@@H]3CN2C(=O)N3OS(=O)(=O)O)C1` [Example 1, (2S,5R)—N-{[(2S,4R)-4-methylpyrrolidin-2-yl]methyloxy}-7-oxo-6-(sulfooxy)-1,6-diazabicyclo[3.2.1]octane-2-carboxamide], the melting point was 172 to 174 °C (dec.). Besides, the minimal inhibitory concentration (MIC) against E. Coli S 18 was 1 µg/mL (≈ 2.64 µM). In the data set on K. pneumoniae B 88, the MIC was more than 32 µg/mL. In addition, the MIC with K. pneumoniae B 77 was more than 32 µg/mL. This compound also displayed an MIC against K. pneumoniae H 525 of 0.5 µg/mL (≈ 1.32 µM). In addition, inhibition of growth with E. Coli 13352 (MIC) required 1 µg/mL (≈ 2.64 µM). In addition, in the data set with K. pneumoniae NCTC 13439, the MIC was more than 32 µg/mL. Moreover, inhibition of growth with E. Coli 13351 (MIC) required 1 µg/mL (≈ 2.64 µM). Further, the MIC against E. Coli 13353 is 0.5 µg/mL (≈ 1.32 µM). In the data set on E. Coli M 50, this compound gave an MIC of 0.5 µg/mL (≈ 1.32 µM). Moreover, in data set [1], the “antibacterial effect in combination” value was “unusual and unexpected synergistic antibacterial effect”; the “antibacterial activity when used alone” value is “did not exhibit significant antibacterial activity”. The compound also showed an MIC with E. Coli M 36 of 0.5 µg/mL (≈ 1.32 µM). Besides, in the data set on K. pneumoniae H 523, the minimal inhibitory concentration (MIC) was 0.5 µg/mL (≈ 1.32 µM). The MIC in the data set on K. pneumoniae S 465 is more than 32 µg/mL. The same compound returned a minimum inhibitory concentration (MIC) against K. pneumoniae H 521 of 1 µg/mL (≈ 2.64 µM). This compound displayed an MIC in the data set on E. Coli M 49 of 4 µg/mL (≈ 10.6 µM). In the data set with E. Coli M 138, the minimal inhibitory concentration (MIC) was found to be 0.5 µg/mL (≈ 1.32 µM). The compound also returned a minimal inhibitory concentration (MIC) against E. Coli 7 MP of 1 µg/mL (≈ 2.64 µM). In the data set on K. pneumoniae NCTC 13443, the MIC is more than 32 µg/mL. In the data set on K. pneumoniae H 522, this compound returned an MIC of 1 µg/mL (≈ 2.64 µM). In the data set with KP ATCC 700603, the MIC is more than 32 µg/mL.
